One test has as its target BTK wt (Homo sapiens (Human), UniProt Q06187). Kind of test: 33P ATP HotSpot kinase assay, BTK wt. The note with it: 10 μM ATP. It counts as biochemical. From the text: (See, e.g., Ma, et al, 2008 Expert Opin Drug Discov. 3(6): 607-621.)
For a further test, the target named is EGFR wt (Homo sapiens (Human), UniProt P00533). Kind of test: 33P ATP HotSpot kinase assay, EGFR wt. It is filed as biochemical. The note with it: 10 μM ATP.
In a further test the target is FAK (Homo sapiens (Human), UniProt Q05397). The experiment in a line: 33P ATP HotSpot kinase assay, FAK. The note with it: read-out: IC50 FAK, 10 μM ATP.

Bounds are passed on as bounds.

Chain of BTK wt (Q06187 whole entry): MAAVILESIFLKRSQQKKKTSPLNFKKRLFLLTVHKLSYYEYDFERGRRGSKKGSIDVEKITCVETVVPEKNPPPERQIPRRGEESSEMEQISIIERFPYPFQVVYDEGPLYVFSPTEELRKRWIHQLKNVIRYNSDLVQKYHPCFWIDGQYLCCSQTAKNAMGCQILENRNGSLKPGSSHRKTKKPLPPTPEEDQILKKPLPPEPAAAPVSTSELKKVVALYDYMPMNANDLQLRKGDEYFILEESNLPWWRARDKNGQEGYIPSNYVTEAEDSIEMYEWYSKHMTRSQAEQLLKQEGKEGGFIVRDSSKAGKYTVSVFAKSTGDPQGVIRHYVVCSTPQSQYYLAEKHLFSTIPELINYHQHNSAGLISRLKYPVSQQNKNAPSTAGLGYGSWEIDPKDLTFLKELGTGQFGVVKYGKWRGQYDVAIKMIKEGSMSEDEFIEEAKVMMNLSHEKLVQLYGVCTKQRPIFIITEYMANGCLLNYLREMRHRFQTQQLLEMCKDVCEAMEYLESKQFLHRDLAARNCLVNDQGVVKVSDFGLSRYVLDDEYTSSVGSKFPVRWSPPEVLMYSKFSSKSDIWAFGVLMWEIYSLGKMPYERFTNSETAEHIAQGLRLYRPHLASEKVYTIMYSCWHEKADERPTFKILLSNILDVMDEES
Chain of FAK (Q05397 whole entry): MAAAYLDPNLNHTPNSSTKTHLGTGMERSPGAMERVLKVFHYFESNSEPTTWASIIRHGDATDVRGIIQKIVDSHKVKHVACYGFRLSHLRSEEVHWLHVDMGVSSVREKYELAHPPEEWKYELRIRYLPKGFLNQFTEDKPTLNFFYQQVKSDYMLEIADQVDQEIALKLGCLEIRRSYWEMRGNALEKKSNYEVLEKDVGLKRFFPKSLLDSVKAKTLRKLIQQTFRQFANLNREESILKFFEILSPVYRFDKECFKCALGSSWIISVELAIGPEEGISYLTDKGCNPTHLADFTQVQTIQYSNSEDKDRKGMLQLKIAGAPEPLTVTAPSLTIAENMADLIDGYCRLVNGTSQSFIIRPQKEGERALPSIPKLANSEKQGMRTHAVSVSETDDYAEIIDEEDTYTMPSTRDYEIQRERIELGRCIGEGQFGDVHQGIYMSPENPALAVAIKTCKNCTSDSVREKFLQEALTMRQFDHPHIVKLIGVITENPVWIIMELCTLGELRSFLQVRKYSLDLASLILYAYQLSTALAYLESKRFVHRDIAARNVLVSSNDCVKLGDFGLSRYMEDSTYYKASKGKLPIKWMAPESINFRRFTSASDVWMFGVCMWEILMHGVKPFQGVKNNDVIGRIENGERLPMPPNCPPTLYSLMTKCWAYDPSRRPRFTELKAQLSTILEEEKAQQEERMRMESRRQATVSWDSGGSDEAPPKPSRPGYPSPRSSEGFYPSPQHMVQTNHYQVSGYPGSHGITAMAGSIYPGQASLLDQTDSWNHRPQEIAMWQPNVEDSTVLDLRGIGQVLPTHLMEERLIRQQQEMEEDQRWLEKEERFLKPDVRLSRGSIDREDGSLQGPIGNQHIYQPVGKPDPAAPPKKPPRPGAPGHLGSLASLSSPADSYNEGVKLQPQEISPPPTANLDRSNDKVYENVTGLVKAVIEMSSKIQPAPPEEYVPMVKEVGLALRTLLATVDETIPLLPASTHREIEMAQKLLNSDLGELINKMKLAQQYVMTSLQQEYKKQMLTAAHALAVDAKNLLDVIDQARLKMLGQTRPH
Chain of EGFR wt (P00533 25-1210): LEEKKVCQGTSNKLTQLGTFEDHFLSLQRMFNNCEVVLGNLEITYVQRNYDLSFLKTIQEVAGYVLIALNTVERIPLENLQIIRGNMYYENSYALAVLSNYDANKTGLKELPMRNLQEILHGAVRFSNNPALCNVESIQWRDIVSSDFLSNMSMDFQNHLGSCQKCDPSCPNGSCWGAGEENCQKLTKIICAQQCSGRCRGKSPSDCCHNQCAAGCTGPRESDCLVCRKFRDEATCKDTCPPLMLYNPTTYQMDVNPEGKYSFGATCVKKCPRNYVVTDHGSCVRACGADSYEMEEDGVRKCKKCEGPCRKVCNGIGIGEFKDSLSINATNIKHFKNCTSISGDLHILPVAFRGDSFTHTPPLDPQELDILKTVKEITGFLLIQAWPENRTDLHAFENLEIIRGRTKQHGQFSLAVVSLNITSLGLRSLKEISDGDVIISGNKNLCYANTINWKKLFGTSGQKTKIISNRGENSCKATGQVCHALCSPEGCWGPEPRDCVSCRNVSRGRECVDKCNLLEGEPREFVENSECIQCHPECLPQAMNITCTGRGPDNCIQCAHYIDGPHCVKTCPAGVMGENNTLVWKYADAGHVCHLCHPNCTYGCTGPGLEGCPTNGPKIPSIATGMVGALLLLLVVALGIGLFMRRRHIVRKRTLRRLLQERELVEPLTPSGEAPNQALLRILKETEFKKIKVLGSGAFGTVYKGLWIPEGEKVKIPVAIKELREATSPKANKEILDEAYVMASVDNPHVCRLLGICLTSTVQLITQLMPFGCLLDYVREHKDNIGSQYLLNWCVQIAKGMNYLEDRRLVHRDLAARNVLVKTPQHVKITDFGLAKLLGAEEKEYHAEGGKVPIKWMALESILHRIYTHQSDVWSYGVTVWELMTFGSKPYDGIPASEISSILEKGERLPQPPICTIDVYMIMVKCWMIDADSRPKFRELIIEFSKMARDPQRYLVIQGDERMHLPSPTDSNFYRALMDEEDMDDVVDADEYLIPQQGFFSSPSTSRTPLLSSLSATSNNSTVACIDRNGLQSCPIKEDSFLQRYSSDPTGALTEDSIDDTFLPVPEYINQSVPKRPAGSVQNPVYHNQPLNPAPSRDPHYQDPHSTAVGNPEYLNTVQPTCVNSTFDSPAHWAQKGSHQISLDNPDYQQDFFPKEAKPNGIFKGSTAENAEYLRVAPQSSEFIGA
Description for EGFR wt: Then, Kinase assays were performed using the “HotSpot” assay platform.
Briefly, specific kinase/substrate pairs along with required cofactors were prepared in reaction buffer; 20 mM Hepes pH 7.5, 10 mM MgCl2, 1 mM EGTA, 0.02% Brij35, 0.02 mg/ml BSA, 0.1 mM Na3VO4, 2 mM DTT, 1% DMSO. Compounds were delivered into the reaction, followed about 20 minutes later by addition of a mixture of ATP (Sigma, St. Louis Mo.) and ^33P ATP (Perkin Elmer, Waltham Mass.) to a final concentration of 10 μM.
Reactions were carried out at room temperature for 120 min, followed by spotting of the reactions onto P81 ion exchange filter paper (Whatman Inc., Piscataway, N.J.). Unbound phosphate was removed by extensive washing of filters in 0.75% phosphoric acid. […] IC50 values and curve fits were obtained using Prism (GraphPad Software).

In turn, `CN([C@@H]1c2ccccc2C[C@H]1Oc1nc(Nc2ccc3c(c2)OCCOCCOCCO3)nc2[nH]cnc12)S(C)(=O)=O` [Compound-31, N-methyl-N-[(1R,2R)-2-[[2-(2,5,8,11-tetraoxabicyclo[10.4.0]hexadeca-1(12),13,15-trien-14-ylamino)-9H-purin-6-yl]oxy]indan-1-yl]methanesulfonamide] showed an IC50 against BTK wt of 198 nM.

As to `c1cc(Nc2nc(Nc3ccc4c(c3)OCCOCCOCCO4)nc3[nH]cnc23)c2[nH]ccc2c1` [Compound-23, N6-(1H-indol-7-yl)-N2-(2,5,8,11-tetraoxabicyclo[10.4.0]hexadeca-1(12),13,15-trien-14-yl)-9H-purine-2,6-diamine], the IC50 against BTK wt is 62.8 nM; on EGFR wt it was greater than 1000 nM; at FAK, 257 nM.

`CC(=O)Nc1cc(F)ccc1Nc1nc(Nc2ccc3c(c2)OCCOCCOCCO3)nc2[nH]cnc12` [Compound-28, N-[5-fluoro-2-[[2-(2,5,8,11-tetraoxabicyclo[10.4.0]hexadeca-1(12),13,15-trien-14-ylamino)-9H-purin-6-yl]amino]phenyl]acetamide] showed a 50% inhibitory concentration (IC50) at BTK wt of 9.37 nM.

Compound `CN([C@@H]1c2ccccc2C[C@H]1Oc1cc(Nc2ccc3c(c2)OCCOCCOCCO3)ncc1C(F)(F)F)S(C)(=O)=O` [Compound-32, N-methyl-N-[(1R,2R)-2-[[2-(2,5,8,11-tetraoxabicyclo[10.4.0]hexadeca-1(12),13,15-trien-14-ylamino)-5-(trifluoromethyl)-4-pyridyl]oxy]indan-1-yl]methanesulfonamide] yielded a half-maximal inhibitory concentration (IC50) against BTK wt greater than 10000 nM.

With `CC(=O)Nc1cc(C)ccc1Nc1nc(Nc2ccc3c(c2)OCCOCCOCCO3)nc2[nH]cnc12` [Compound-27, N-[5-methyl-2-[[2-(2,5,8,11-tetraoxabicyclo[10.4.0]hexadeca-1(12),13,15-trien-14-ylamino)-9H-purin-6-yl]amino]phenyl]acetamide], half-maximal inhibition against BTK wt (IC50) was put at 16.8 nM.

As for `CC(=O)Nc1cc(C(F)(F)F)ccc1Nc1nc(Nc2ccc3c(c2)OCCOCCOCCO3)nc2[nH]cnc12` [Compound-29, N-[2-[[2-(2,5,8,11-tetraoxabicyclo[10.4.0]hexadeca-1(12),13,15-trien-14-ylamino)-9H-purin-6-yl]amino]-5-(trifluoromethyl)phenyl]acetamide], the IC50 on BTK wt is 67.1 nM.

`C=CC(=O)Nc1cc(C)ccc1Nc1nc(Nc2ccc3c(c2)OCCOCCOCCO3)nc2[nH]ncc12` [Compound-26, N-[5-methyl-2-[[6-(2,5,8,11-tetraoxabicyclo[10.4.0]hexadeca-1(12),13,15-trien-14-ylamino)-1H-pyrazolo[3,4-d]pyrimidin-4-yl]amino]phenyl]prop-2-enamide] displayed a half-inhibitory concentration (IC50) on BTK wt of 33.3 nM.

For the compound `C=CC(=O)Nc1cccc(-c2nc(Nc3ccc4c(c3)OCCOCCOCCO4)ncc2F)c1` [Compound-30, N-[3-[5-fluoro-2-(2,5,8,11-tetraoxabicyclo[10.4.0]hexadeca-1(12),13,15-trien-14-ylamino)pyrimidin-4-yl]phenyl]prop-2-enamide], the IC50 is 613 nM on BTK wt and greater than 1000 nM on FAK.

In general, IC50 refers to the concentration that inhibits the measured activity by half.
